# Earlier results as cited in patent publication US7411005B2, “Compositions and methods for increasing milk production in animals” (Van Beek Natural Science, LLC, priority 2002, dated 2008).
# Conditions: inactive metabolites after degradation by enzymes
compound,measurement,value
"Cc1ccc(C(C)C)c(O)c1 [isopropyl-cresol, 5-methyl-2[1-methylethyl]phenol]",metabolites excreted in the urine,approx. 90%
same,metabolites expired from the lungs in the form of CO2,10%
"Cc1ccc(C(C)C)cc1O [isopropyl-o-cresol, 5-isopropyl-2-methylphenol]",metabolites excreted in the urine,approx. 90%
same,metabolites expired from the lungs in the form of CO2,10%
